Experiments:
[1] = tested on: C57BL/6 mice on a high-fat diet; assay: Chronic 28-day administration in HFD mice: bodyweight, water and feed consumption; format: in vivo, mouse; settings: for Weekly food consumption / Weekly water consumption: Metformin 250 mg/kg p.o. daily
Description: A standard laboratory rodent pellet SNIFF RI/M-H V1534-30 (58% carbohydrates, 9% fat, 33% protein, 306 kcal/100 g) was given ad libitum to the control animals. For HFD groups, the high-fat feed was used. For 1 kg of feed, 610 g of ground SNIFF feed and 360 g of melted pork lard were taken, water (˜250 ml, 60-70° C.), 10 g of sodium chloride, 30 g of sodium glutamate were added. The mixture was brewed to a dough consistency, and food granules were formed. Then the granules were dried at 60-70° C. for 10-12 hours. The finished food for consumption was transferred to the animal-keeping area. The prepared food was stored at 4° C. for no more than 7 days. The approximate energy value of the HFD feed was 516 kcal/100 g (45% fat, 35% carbohydrates, 20% protein).
The metabolic syndrome was modeled by keeping animals on a HFD for 16 weeks. The control group was kept on a standard diet (STD) during this period. Animals had free access to feed and water located in the cage lid.
(§1) Groups of 10 animals were formed from the existing groups from Stage 2, with similar mean body weight (Table 6). The animals' bodyweight was monitored three times a week, water, and feed consumption—weekly. After the last treatment, the animals were euthanized for necropsy and their blood collected. The internal organs were examined for the presence of macro damage and weighed. The adipose tissue surrounding the epididymis was evaluated as a marker of obesity in animals. For histological examination, samples of adipose tissue and liver tissue were fixed in 10% formalin solution for further histological analysis.
The administration volume was 10 ml/kg for drugs administered i.p., 6 μl/animal for i.n. administration and 5 ml/kg for drugs administered p.o.
The animals were weighed weekly on weeks 1-16 of the experiment (1-120 days of the study), during the administration of the tested substances (121-148 days)—three times a week. The bodyweight of a hungry animal immediately before necropsy was taken to calculate the percentage of organ weight to body weight.
Each animal's food and water consumption was evaluated weekly by weighing the grid with food or a bottle of water before and after 24 hours.

[2] = tested on: C57BL/6 mice on a high-fat diet; assay: Tolerability observations in HFD mice study; format: in vivo, mouse; settings: metformin 250 mg/kg p.o.
Description: as §1
(§2) During necropsy, the body's external state, internal surfaces, the cranial cavity, chest, abdominal and pelvic cavities with organs and tissues located in them, the neck with organs and tissues, the skeleton, and the musculoskeletal system were examined. The organs and tissues were fixed in 10% formalin. Liver and adipose tissue samples were weighed and stored in 10% formalin for subsequent histological analysis.

IL-6 = IL-6 mRNA expression in LPS-induced primary mouse fibroblasts; format: cell-based; settings: LPS 0.5 μg/mL 24 h; DLSKEPSISRE 0.05 mg/mL or metformin 1 mM
Description: The study was carried out in primary mouse fibroblasts. Isolation of fibroblasts was carried out with techniques described earlier (See Example 1). Fibroblasts were cultured for 3 days. The following stressors were applied separately: bacterial lipopolysaccharides (LPS), high glucose in the incubation medium, and serum-free incubation medium.
LPS is a major outer surface membrane component that induces an inflammatory response in cells.
Isolation of mRNA, synthesis of the first strand of cDNA, and RT-PCR were performed with techniques described earlier (See Example 1). Expression levels of IRS2, TNF-α, IL-6, and GSK3p (WNT-pathway) were analyzed.
The study was carried out in primary mouse fibroblasts. Isolation of fibroblasts was carried out with techniques described earlier (See Example 1). Incubation of fibroblasts with 100 μM individual peptides and 0.5 μg/mL LPS was carried out for 24 hours. Each treatment group was represented in two biological replicates.
Isolation of mRNA, synthesis of the first strand of cDNA, and RT-PCR were performed with techniques described earlier (See Example 1). Expression levels of RPL27, TNF-α, IL-6, and IRS2 genes were analyzed.

[3] = tested on: C57BL/6 mice on a high-fat diet; assay: Visceral fat weight and adipocyte histology after chronic administration in HFD mice; format: in vivo, mouse; settings: four weeks
Description: as §1
After necropsy, the following internal organs were weighed: adrenal glands, kidneys, liver, pancreas, heart, spleen, and testicles.
as §2, with “Liver and adipose tissue samples were weighed and stored in 10% formalin for subsequent histological analysis.” left out
Microscopic analysis was performed using a DMLA Leica transmitted light microscope (Germany), a Photometrics Cool SNAP cf video camera (USA), and Mekos software (Russia). […] One hundred adipocytes were measured on sections of the visceral fat samples in 15-20 random fields of view.

CN(C)C(=N)N=C(N)N [Metformin]
Bodyweight during the period the test substance administration ([1]; Metformin 250 mg/kg p.o. daily from day 122, day 122): 34.3 ± 0.7 grams
Bodyweight during the period the test substance administration ([1]; Metformin 250 mg/kg p.o. daily from day 122, day 124): 33.9 ± 0.7 grams
Bodyweight during the period the test substance administration ([1]; Metformin 250 mg/kg p.o. daily from day 122, day 126): 33.4 ± 0.8 grams
Bodyweight during the period the test substance administration ([1]; Metformin 250 mg/kg p.o. daily from day 122, day 129): 32.9 ± 0.7 grams
Bodyweight during the period the test substance administration ([1]; Metformin 250 mg/kg p.o. daily from day 122, day 131): 33.1 ± 0.7 grams
Bodyweight during the period the test substance administration ([1]; Metformin 250 mg/kg p.o. daily from day 122, day 133): 33.1 ± 0.8 grams
Bodyweight during the period the test substance administration ([1]; Metformin 250 mg/kg p.o. daily from day 122, day 136): 32.4 ± 1.1 grams
Bodyweight during the period the test substance administration ([1]; Metformin 250 mg/kg p.o. daily from day 122, day 138): 32.2 ± 1.1 grams
Bodyweight during the period the test substance administration ([1]; Metformin 250 mg/kg p.o. daily from day 122, day 141): 32.9 ± 0.9 grams
Bodyweight during the period the test substance administration ([1]; Metformin 250 mg/kg p.o. daily from day 122, day 144): 33.2 ± 1.0 grams
Bodyweight during the period the test substance administration ([1]; Metformin 250 mg/kg p.o. daily from day 122, day 147): 33.5 ± 1.0 grams
Weekly food consumption ([1]; Week 1): 458.4 ± 55.4 kcal/kg/day
Weekly water consumption ([1]; Week 1): 0.1095 ± 0.0109 mL/min/kg
Weekly food consumption ([1]; Week 2): 758.4 ± 51.4 kcal/kg/day
Weekly water consumption ([1]; Week 2): 0.1199 ± 0.00944 mL/min/kg
Weekly food consumption ([1]; Week 3): 567.6 ± 21.3 kcal/kg/day
Weekly water consumption ([1]; Week 3): 0.1505 ± 0.0169 mL/min/kg
Weekly food consumption ([1]; Week 4): 709.4 ± 22.7 kcal/kg/day
Weekly water consumption ([1]; Week 4): 0.182 ± 0.0183 mL/min/kg
decrease in weight compared to values before substance administration ([1]; Metformin p.o., chronic 4-week): 7.6%
Animal body weight before the administration of the tested substances ([1]; day 112, baseline, group 5 Metformin p.o.): 36.94 ± 0.954 grams
loss of excess body weight (normalized to HFD control) ([1]; metformin chronic administration, compared with EPSI i.n.): comparable
death of animals after administration [2]: 2 animals
deviations in the state of health observed after the first injection [2]: hunching, tremor, weight loss
LPS-induced expression of IL-6 (IL-6): similarly
decrease in average linear size of visceral fat adipocytes compared to HFD control ([3]; Metformin 250 mg/kg p.o.): 31%
visceral fat (adipose tissue surrounding the epididymis) weight ([3]; EPSI 5 mg/kg i.p. and i.n., metformin 250 mg/kg p.o., vs HFD control): statistically significant decrease

— patent publication US20250177473A1, “PEPTIDE REGULATORS OF METABOLISM” (Metabico, Inc., priority 2022, published 2025)
